Experimental data from ChEMBL document CHEMBL4359906, “Design and synthesis of new N-terminal fatty acid modified-antimicrobial peptide analogues with potent in vitro biological activity” (Eur J Med Chem, 2019).
In brackets after ≈: the same amount, converted by molar mass. Activity calls are given as the source filed them. No cut-off for these calls is given here. Where a SMILES comes first, the peptide text is derived from it. Bridges are numbered along the chain shown (N, C = ends). [ ]: non-standard residue; d: D form. The star is where a group is joined. X1 = CC[C@H](C)CCCCC(=O)*; Dab = NCC[C@H](N)C(=O)O

How the values were obtained:
Staphylococcus aureus [1] = assay: Antibacterial activity against methicillin-resistant Staphylococcus aureus 936 after 18 hrs by CLSI based broth microdilution method; type: functional; details: Staphylococcus aureus, 936, 18 h
Klebsiella pneumoniae = assay: Antibacterial activity against Klebsiella pneumoniae ATCC 700603 after 18 hrs by CLSI based broth microdilution method; type: functional
Bacillus subtilis = assay: Antibacterial activity against Bacillus subtilis ATCC 23857 after 18 hrs by CLSI based broth microdilution method; type: functional; details: ATCC 23857, 18 h
Escherichia coli [2] = assay: Antibacterial activity against Escherichia coli ATCC 25922 after 18 hrs by CLSI based broth microdilution method; type: functional
Staphylococcus aureus [3] = assay: Antibacterial activity against Staphylococcus aureus ATCC 25923 after 18 hrs by CLSI based broth microdilution method; type: functional; details: ATCC 25923, 18 h
Escherichia coli [4] = assay: Antibacterial activity against Escherichia coli ATCC 43837 after 18 hrs by CLSI based broth microdilution method; type: functional
Pseudomonas aeruginosa = assay: Antibacterial activity against Pseudomonas aeruginosa ATCC 27853 after 18 hrs by CLSI based broth microdilution method; type: functional
Staphylococcus aureus [5] = assay: Antibacterial activity against Staphylococcus aureus ATCC 25923 after 18 hrs in presence of MgCl2 by CLSI based broth microdilution method (reference value: 16 microM); type: functional; details: ATCC 25923, 18 h
Escherichia coli [6] = assay: Induction of membrane disruption in Escherichia coli ATCC 25922 assessed as fracture in membrane at 4 times of MIC after 2 hrs by SEM analysis; type: functional, organism-based
Escherichia coli [7] = assay: Ratio of antibacterial activity against Escherichia coli ATCC 25922 in presence of FeCl3 to antibacterial activity against Escherichia coli ATCC 25922; type: functional
Escherichia coli [8] = assay: Antibacterial activity against Escherichia coli ATCC 25922 after 18 hrs in presence of NaCl by CLSI based broth microdilution method (reference value: 4 microM); type: functional; details: ATCC 25922, 18 h
Escherichia coli [9] = assay: Ratio of antibacterial activity against Escherichia coli ATCC 25922 in presence of MgCl2 to antibacterial activity against Escherichia coli ATCC 25922; type: functional
Escherichia coli [10] = assay: Antibacterial activity against Escherichia coli ATCC 25922 after 18 hrs in presence of MgCl2 by CLSI based broth microdilution method (reference value: 4 microM); type: functional; details: ATCC 25922, 18 h
Escherichia coli [11] = assay: Induction of ROS generation in Escherichia coli ATCC 25922; type: functional, organism-based
Escherichia coli [12] = assay: Disruption of membrane integrity in Escherichia coli ATCC 25922 assessed as membrane damage by measuring PI fluorescence at 4 times of MIC incubated for 1 hr by PI dye based flow cytometric analysis (reference value: 1.35%); type: functional
Staphylococcus aureus [13] = assay: Antibacterial activity against Staphylococcus aureus ATCC 25923 after 18 hrs in presence of FeCl3 by CLSI based broth microdilution method (reference value: 16 microM); type: functional; details: ATCC 25923, 18 h
Escherichia coli [14] = assay: Ratio of antibacterial activity against Escherichia coli ATCC 25922 in presence of KCl to antibacterial activity against Escherichia coli ATCC 25922; type: functional
Escherichia coli [15] = assay: Antibacterial activity against Escherichia coli ATCC 25922 after 18 hrs in presence of FeCl3 by CLSI based broth microdilution method (reference value: 4 microM); type: functional; details: ATCC 25922, 18 h
Escherichia coli [16] = assay: Ratio of antibacterial activity against Escherichia coli ATCC 25922 in presence of NaCl to antibacterial activity against Escherichia coli ATCC 25922; type: functional
Staphylococcus aureus [17] = assay: Ratio of antibacterial activity against Staphylococcus aureus ATCC 25923 in presence of KCl to antibacterial activity against Staphylococcus aureus ATCC 25923; type: functional
Staphylococcus aureus [18] = assay: Antibacterial activity against Staphylococcus aureus ATCC 25923 after 18 hrs in presence of NaCl by CLSI based broth microdilution method (reference value: 16 microM); type: functional; details: ATCC 25923, 18 h
Escherichia coli [19] = assay: Antibacterial activity against Escherichia coli ATCC 25922 after 18 hrs in presence of KCl by CLSI based broth microdilution method (reference value: 4 microM); type: functional; details: ATCC 25922, 18 h
Staphylococcus aureus [20] = assay: Antibacterial activity against Staphylococcus aureus ATCC 25923 after 18 hrs in presence of KCl by CLSI based broth microdilution method (reference value: 16 microM); type: functional; details: ATCC 25923, 18 h
Escherichia coli [21] = assay: Disruption of membrane integrity in Escherichia coli ATCC 25922 assessed as membrane damage by measuring PI fluorescence at 2 times of MIC incubated for 1 hr by PI dye based flow cytometric analysis (reference value: 1.35%); type: functional
Escherichia coli [22] = assay: Induction of membrane disruption in Escherichia coli ATCC 25922 assessed as corrugated membrane surface at 4 times of MIC after 2 hrs by SEM analysis; type: functional, organism-based
Escherichia coli [23] = assay: Induction of membrane disruption in Escherichia coli ATCC 25922 assessed as rough membrane surface at 4 times of MIC after 2 hrs by SEM analysis; type: functional, organism-based
Staphylococcus aureus [24] = assay: Ratio of antibacterial activity against Staphylococcus aureus ATCC 25923 in presence of MgCl2 to antibacterial activity against Staphylococcus aureus ATCC 25923; type: functional
DNA = assay: Binding affinity to Escherichia coli ATCC 25922 genomic DNA at 4 x MIC after 30 mins by agarose gel electrophoresis; type: nucleic-acid assay
Staphylococcus aureus [25] = assay: Ratio of antibacterial activity against Staphylococcus aureus ATCC 25923 in presence of FeCl3 to antibacterial activity against Staphylococcus aureus ATCC 25923; type: functional
Staphylococcus aureus [26] = assay: Ratio of antibacterial activity against Staphylococcus aureus ATCC 25923 in presence of NaCl to antibacterial activity against Staphylococcus aureus ATCC 25923; type: functional
Staphylococcus aureus [27] = assay: Antibiofilm activity against Staphylococcus aureus ATCC 25923 at 1 to 2 times of MIC after 24 hrs by crystal violet staining based assay; type: functional, organism-based
Escherichia coli [28] = assay: Induction of membrane disruption in Escherichia coli ATCC 25922 assessed as degeneration in membrane at 4 times of MIC after 2 hrs by SEM analysis; type: functional, organism-based
[29] = Klebsiella pneumoniae, 700603, 18 h

CC[C@H](C)[C@H](NC(=O)[C@H](CCCNC(=N)N)NC(=O)[C@@H](CCCCN)NC(=O)[C@H](CC(C)C)NC(=O)[C@H](CC(C)C)NC(=O)CN)C(=O)N[C@H](CCCCN)C(=O)N[C@H](C(=O)N[C@@H](CC(C)C)C(=O)N[C@@H](CC(C)C)C(N)=O)[C@@H](C)O (H-GLL[dK]RI[dK]TLL-NH2)
MIC (Staphylococcus aureus [1]): > 128 µM | MIC (Klebsiella pneumoniae; [29]): > 128 µM | MIC (Bacillus subtilis): 64 µM (≈ 73.8 µg/mL) | MIC (Escherichia coli [2]; ATCC 25922, 18 h): > 128 µM | MIC (Staphylococcus aureus [3]): > 128 µM | MIC (Escherichia coli [4]; ATCC 43837, 18 h): > 128 µM | MIC (Pseudomonas aeruginosa; ATCC 27853, 18 h): 64 µM (≈ 73.8 µg/mL)

CC1(C)S[C@@H]2[C@H](NC(=O)Cc3ccccc3)C(=O)N2[C@H]1C(=O)O [PENICILLIN G]
MIC (Staphylococcus aureus [1]): 32 µM (≈ 10.7 µg/mL) | MIC (Klebsiella pneumoniae; [29]): > 128 µM | MIC (Bacillus subtilis): < 1 µM | MIC (Escherichia coli [2]; ATCC 25922, 18 h): 64 µM (≈ 21.4 µg/mL) | MIC (Staphylococcus aureus [3]): < 1 µM | MIC (Escherichia coli [4]; ATCC 43837, 18 h): 8 µM (≈ 2.68 µg/mL) | MIC (Pseudomonas aeruginosa; ATCC 27853, 18 h): > 128 µM

CCCCCC(=O)NCC(=O)N[C@@H](CC(C)C)C(=O)N[C@@H](CC(C)C)C(=O)N[C@H](CCCCN)C(=O)N[C@@H](CCCNC(=N)N)C(=O)N[C@H](C(=O)N[C@H](CCCCN)C(=O)N[C@H](C(=O)N[C@@H](CC(C)C)C(=O)N[C@@H](CC(C)C)C(N)=O)[C@@H](C)O)[C@@H](C)CC
MIC (Staphylococcus aureus [1]): > 128 µM | MIC (Klebsiella pneumoniae; [29]): > 128 µM | MIC (Bacillus subtilis): 16 µM (≈ 20 µg/mL) | MIC (Escherichia coli [2]; ATCC 25922, 18 h): 128 µM (≈ 160 µg/mL) | MIC (Staphylococcus aureus [3]): > 128 µM | MIC (Escherichia coli [4]; ATCC 43837, 18 h): > 128 µM | MIC (Pseudomonas aeruginosa; ATCC 27853, 18 h): 32 µM (≈ 40.1 µg/mL)

CN[C@H](CC(C)C)C(=O)N[C@H]1C(=O)N[C@@H](CC(N)=O)C(=O)N[C@H]2C(=O)N[C@H]3C(=O)N[C@H](C(=O)N[C@H](C(=O)O)c4cc(O)cc(O)c4-c4cc3ccc4O)[C@H](O)c3ccc(c(Cl)c3)Oc3cc2cc(c3O[C@@H]2O[C@H](CO)[C@@H](O)[C@H](O)[C@H]2O[C@H]2C[C@](C)(N)[C@H](O)[C@H](C)O2)Oc2ccc(cc2Cl)[C@H]1O [VANCOMYCIN]
MIC (Staphylococcus aureus [1]): < 1 µM | MIC (Klebsiella pneumoniae): inactive | MIC (Bacillus subtilis): < 1 µM | MIC (Escherichia coli [2]): inactive | MIC (Staphylococcus aureus [3]): < 1 µM | MIC (Escherichia coli [4]): inactive | MIC (Pseudomonas aeruginosa): inactive

CCCC(=O)NCC(=O)N[C@@H](CC(C)C)C(=O)N[C@@H](CC(C)C)C(=O)N[C@H](CCCCN)C(=O)N[C@@H](CCCNC(=N)N)C(=O)N[C@H](C(=O)N[C@H](CCCCN)C(=O)N[C@H](C(=O)N[C@@H](CC(C)C)C(=O)N[C@@H](CC(C)C)C(N)=O)[C@@H](C)O)[C@@H](C)CC
MIC (Staphylococcus aureus [1]): > 128 µM | MIC (Klebsiella pneumoniae; [29]): > 128 µM | MIC (Bacillus subtilis): 128 µM (≈ 157 µg/mL) | MIC (Escherichia coli [2]; ATCC 25922, 18 h): > 128 µM | MIC (Staphylococcus aureus [3]): > 128 µM | MIC (Escherichia coli [4]; ATCC 43837, 18 h): > 128 µM | MIC (Pseudomonas aeruginosa; ATCC 27853, 18 h): 128 µM (≈ 157 µg/mL)

CC[C@H](C)CCCCC(=O)N[C@@H](CCN)C(=O)N[C@H](C(=O)N[C@@H](CCN)C(=O)N[C@H]1CCNC(=O)[C@H]([C@@H](C)O)NC(=O)[C@H](CCN)NC(=O)[C@H](CCN)NC(=O)[C@H](CC(C)C)NC(=O)[C@@H](Cc2ccccc2)NC(=O)[C@H](CCN)NC1=O)[C@@H](C)O (X1-[Dab]T[Dab][Dab][Dab][dF]L[Dab][Dab]T; lactam 4-C)
MIC (Staphylococcus aureus [5]): 32 µM | Activity (Escherichia coli [6]): Active | Ratio (Escherichia coli [7]): 2 - 4 | MIC (Escherichia coli [8]): 16 µM | Ratio (Escherichia coli [9]): 2 - 4 | MIC (Escherichia coli [10]): 8 µM | Activity (Escherichia coli [11]): inactive | Activity (Escherichia coli [12]): 8.49% | MIC (Staphylococcus aureus [13]): 16 µM | Ratio (Escherichia coli [14]): 2 - 4 | MIC (Escherichia coli [15]): 4 µM | MIC (Staphylococcus aureus [1]): 16 µM (≈ 19.3 µg/mL) | Ratio (Escherichia coli [16]): 2 - 4 | MIC (Klebsiella pneumoniae; [29]): 8 µM (≈ 9.63 µg/mL) | Ratio (Staphylococcus aureus [17]): 2 - 4 | MIC (Staphylococcus aureus [18]): 64 µM | MIC (Escherichia coli [19]): 16 µM | MIC (Staphylococcus aureus [20]): 16 µM | MIC (Bacillus subtilis): 8 µM (≈ 9.63 µg/mL) | Activity (Escherichia coli [21]): 3.47% | Activity (Escherichia coli [22]): Active | Activity (Escherichia coli [23]): Active | Ratio (Staphylococcus aureus [24]): 2 - 4 | MIC (Escherichia coli [2]; ATCC 25922, 18 h): 4 µM (≈ 4.81 µg/mL) | Activity (DNA): inactive | Ratio (Staphylococcus aureus [25]): 2 - 4 | Ratio (Staphylococcus aureus [26]): 2 - 4 | MIC (Staphylococcus aureus [3]): 16 µM (≈ 19.3 µg/mL) | MIC (Escherichia coli [4]; ATCC 43837, 18 h): 2 µM (≈ 2.41 µg/mL) | inhibition (Staphylococcus aureus [27]): Active | Activity (Escherichia coli [28]): Active | MIC (Pseudomonas aeruginosa; ATCC 27853, 18 h): 2 µM (≈ 2.41 µg/mL)
